Test results as given in patent publication US11155555B2, “Compounds” (Janssen Pharmaceutica NV, priority 2015, dated 2021).

What was measured:
FGFR1 = biological target: T1, FGFR1 (Homo sapiens, UniProt P11362); experiment: KINOMEscan enzyme binding assay FGFR1; settings: KINOMEscan (DiscoveRx); pKd = -log Kd, Kd in M
T1 construct: purchased DiscoveRx Corporation (assay service)
Procedure: (§1) Enzyme Binding Assays (KINOMEscan®) Kinase enzyme binding affinities of compounds disclosed herein were determined using the KINOMEscan® technology performed by DiscoveRx Corporation, San Diego, Calif., USA (www.kinomescan.com). Table A2 reports the obtained pKd values, with Kd (M) being the inhibitor binding constant value and with pKd being −log Kd: […]

FGFR2 = biological target: T2, FGFR2 (Homo sapiens, UniProt P21802); experiment: KINOMEscan enzyme binding assay FGFR2; settings: KINOMEscan (DiscoveRx); pKd = -log Kd, Kd in M
T2 construct: purchased DiscoveRx Corporation (assay service)
T2 sequence (P21802 22-821): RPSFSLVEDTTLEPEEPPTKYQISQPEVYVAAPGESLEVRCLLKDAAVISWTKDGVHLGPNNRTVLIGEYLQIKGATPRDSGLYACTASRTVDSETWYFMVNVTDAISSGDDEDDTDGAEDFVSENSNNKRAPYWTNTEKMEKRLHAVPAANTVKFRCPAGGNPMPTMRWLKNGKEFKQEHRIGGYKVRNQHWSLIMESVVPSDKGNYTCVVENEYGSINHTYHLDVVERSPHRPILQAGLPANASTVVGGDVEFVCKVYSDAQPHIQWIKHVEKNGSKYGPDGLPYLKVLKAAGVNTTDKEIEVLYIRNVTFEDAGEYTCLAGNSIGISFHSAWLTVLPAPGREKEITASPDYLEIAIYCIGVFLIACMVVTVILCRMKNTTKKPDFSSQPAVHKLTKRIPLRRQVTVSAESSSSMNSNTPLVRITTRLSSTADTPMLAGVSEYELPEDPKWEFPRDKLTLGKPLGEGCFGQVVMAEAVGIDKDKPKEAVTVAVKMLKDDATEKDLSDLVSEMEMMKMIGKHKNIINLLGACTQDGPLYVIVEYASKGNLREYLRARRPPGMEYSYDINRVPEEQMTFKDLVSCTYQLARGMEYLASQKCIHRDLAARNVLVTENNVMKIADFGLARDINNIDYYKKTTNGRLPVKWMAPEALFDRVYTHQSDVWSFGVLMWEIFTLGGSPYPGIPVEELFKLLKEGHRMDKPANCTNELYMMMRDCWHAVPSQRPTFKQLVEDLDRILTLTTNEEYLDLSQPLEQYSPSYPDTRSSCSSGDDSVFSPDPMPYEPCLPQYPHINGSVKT
Procedure: as §1

FGFR3 = biological target: T3, FGFR3 (Homo sapiens, UniProt P22607); experiment: KINOMEscan enzyme binding assay FGFR3; settings: KINOMEscan (DiscoveRx); pKd = -log Kd, Kd in M
T3 construct: purchased DiscoveRx Corporation (assay service)
T3 sequence (P22607 23-806): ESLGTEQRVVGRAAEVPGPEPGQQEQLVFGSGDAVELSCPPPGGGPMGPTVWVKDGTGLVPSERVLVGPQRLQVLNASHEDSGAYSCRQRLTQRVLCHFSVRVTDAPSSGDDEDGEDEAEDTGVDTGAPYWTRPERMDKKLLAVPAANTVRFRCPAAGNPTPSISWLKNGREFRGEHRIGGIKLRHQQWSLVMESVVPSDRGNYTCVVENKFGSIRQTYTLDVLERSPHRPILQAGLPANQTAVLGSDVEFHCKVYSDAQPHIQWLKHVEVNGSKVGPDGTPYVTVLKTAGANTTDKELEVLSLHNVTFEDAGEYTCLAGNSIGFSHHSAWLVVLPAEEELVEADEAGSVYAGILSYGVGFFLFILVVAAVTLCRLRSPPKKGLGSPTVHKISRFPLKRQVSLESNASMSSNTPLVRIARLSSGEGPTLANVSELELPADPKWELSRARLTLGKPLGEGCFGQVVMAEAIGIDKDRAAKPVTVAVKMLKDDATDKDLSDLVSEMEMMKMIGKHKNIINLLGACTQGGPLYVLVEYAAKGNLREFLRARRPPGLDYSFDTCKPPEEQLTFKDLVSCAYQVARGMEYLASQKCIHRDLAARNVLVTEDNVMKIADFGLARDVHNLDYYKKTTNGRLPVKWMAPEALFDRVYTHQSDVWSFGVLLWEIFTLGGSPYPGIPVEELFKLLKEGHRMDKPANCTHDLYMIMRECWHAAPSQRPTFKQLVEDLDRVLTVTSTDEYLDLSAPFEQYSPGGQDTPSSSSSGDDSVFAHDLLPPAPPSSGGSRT
Procedure: as §1

FGFR4 = biological target: T4, FGFR4 (Homo sapiens, UniProt P22455); experiment: KINOMEscan enzyme binding assay FGFR4; settings: KINOMEscan (DiscoveRx); pKd = -log Kd, Kd in M
T4 construct: purchased DiscoveRx Corporation (assay service)
T4 sequence (P22455 22-802): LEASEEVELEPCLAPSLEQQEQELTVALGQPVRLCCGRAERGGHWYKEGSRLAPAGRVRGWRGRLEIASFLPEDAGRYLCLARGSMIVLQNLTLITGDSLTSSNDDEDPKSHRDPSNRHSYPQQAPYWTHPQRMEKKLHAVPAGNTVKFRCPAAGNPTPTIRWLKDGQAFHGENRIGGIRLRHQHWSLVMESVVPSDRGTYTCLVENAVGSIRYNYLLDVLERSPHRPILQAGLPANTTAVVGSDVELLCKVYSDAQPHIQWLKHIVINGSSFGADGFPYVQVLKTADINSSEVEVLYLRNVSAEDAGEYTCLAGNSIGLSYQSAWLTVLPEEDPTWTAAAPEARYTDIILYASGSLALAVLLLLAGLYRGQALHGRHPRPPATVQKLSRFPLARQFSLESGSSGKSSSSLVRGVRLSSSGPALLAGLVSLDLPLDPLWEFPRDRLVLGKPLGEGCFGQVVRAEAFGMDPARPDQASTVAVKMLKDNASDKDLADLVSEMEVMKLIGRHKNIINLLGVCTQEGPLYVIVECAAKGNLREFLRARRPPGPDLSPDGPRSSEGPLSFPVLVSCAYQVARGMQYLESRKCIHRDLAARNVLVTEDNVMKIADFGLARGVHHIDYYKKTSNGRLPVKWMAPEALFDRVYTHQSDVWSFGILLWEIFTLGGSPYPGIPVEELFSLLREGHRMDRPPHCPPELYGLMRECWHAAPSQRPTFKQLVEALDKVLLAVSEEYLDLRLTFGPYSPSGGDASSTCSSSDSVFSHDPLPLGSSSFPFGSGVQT
Procedure: as §1

VEGFR2 = biological target: T5, VEGFR2 (Homo sapiens, UniProt P35968); experiment: KINOMEscan enzyme binding assay VEGFR2; settings: KINOMEscan (DiscoveRx); pKd = -log Kd, Kd in M
T5 construct: purchased DiscoveRx Corporation (assay service)
T5 sequence (P35968 20-1356): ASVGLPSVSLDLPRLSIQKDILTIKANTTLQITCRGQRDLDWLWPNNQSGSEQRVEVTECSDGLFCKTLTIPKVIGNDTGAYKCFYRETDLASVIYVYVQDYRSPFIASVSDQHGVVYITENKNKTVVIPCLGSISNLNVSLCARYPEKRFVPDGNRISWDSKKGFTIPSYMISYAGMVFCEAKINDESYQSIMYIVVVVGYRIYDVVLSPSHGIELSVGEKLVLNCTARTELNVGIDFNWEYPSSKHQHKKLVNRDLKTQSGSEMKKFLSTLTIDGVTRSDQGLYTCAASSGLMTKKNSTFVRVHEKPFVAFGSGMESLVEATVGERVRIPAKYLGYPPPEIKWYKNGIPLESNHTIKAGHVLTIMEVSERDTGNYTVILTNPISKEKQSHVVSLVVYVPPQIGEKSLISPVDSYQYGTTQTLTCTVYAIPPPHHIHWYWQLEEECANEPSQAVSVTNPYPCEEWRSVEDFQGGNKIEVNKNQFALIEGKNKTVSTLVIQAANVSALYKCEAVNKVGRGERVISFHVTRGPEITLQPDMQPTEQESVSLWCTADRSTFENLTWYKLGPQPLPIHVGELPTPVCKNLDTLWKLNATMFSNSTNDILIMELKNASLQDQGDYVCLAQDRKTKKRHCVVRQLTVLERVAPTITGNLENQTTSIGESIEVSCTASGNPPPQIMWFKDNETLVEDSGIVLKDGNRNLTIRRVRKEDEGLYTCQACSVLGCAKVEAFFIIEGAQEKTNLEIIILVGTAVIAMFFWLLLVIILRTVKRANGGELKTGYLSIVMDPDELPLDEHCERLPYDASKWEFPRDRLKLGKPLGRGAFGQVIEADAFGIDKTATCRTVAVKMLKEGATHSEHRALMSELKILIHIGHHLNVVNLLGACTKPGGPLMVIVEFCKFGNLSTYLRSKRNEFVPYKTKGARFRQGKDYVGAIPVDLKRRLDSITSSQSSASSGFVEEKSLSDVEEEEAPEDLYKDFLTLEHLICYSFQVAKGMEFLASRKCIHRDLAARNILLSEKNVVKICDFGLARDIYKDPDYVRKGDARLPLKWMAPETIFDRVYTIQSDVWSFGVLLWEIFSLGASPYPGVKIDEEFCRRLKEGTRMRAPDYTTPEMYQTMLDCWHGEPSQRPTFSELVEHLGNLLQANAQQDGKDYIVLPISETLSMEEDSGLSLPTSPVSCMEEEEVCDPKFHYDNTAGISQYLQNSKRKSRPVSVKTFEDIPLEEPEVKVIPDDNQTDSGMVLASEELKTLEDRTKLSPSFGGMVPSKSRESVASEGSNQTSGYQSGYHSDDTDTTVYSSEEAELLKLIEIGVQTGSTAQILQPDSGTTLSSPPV
Procedure: as §1

T1 sequence (P11362 22-822): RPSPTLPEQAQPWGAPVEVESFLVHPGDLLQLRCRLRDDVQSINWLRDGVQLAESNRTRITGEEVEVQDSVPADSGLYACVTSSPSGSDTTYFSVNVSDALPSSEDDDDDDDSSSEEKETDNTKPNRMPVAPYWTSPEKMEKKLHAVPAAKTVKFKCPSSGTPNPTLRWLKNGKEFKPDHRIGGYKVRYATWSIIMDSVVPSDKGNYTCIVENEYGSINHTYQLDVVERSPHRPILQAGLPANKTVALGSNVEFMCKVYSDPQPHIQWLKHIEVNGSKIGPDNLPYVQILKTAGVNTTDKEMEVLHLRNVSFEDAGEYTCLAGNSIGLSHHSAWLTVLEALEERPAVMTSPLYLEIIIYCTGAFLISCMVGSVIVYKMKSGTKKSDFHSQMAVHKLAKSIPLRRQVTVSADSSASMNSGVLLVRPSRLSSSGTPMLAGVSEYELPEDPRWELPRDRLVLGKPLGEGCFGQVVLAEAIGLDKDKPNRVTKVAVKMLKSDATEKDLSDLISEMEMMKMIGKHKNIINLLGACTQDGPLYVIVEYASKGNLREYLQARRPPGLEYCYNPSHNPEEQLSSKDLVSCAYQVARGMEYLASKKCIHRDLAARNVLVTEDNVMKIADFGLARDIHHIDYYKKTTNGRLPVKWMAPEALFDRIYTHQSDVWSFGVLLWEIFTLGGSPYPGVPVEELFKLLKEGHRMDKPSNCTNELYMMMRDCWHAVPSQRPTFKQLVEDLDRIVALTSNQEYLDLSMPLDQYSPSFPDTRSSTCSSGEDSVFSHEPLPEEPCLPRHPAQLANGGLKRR

Row | SMILES | Kd (FGFR1) | Kd (FGFR2) | Kd (FGFR3) | Kd (FGFR4) | Kd (VEGFR2) | melting point
1 | COc1cc(OC)c(F)c(N2CCN(C(C)C)Cc3c2ccc2ncc(-c4cnn(C)c4)nc32)c1 [Compound 1] | 0.000794 µM | 0.00427 µM | 0.0024 µM | 0.011 µM | 0.0457 µM | 166 °C
2 | COc1cc(OC)c(F)c(N2CCN(C(C)C)Cc3c2ccc2ncc(-c4cn[nH]c4)cc32)c1 [Compound 16] | 0.00229 µM | 0.0398 µM | 0.00794 µM | 0.0182 µM | 0.275 µM | 
3 | COc1cc(OC)c(F)c(N2CCN(C(C)C)Cc3c2ccc2ncc(-c4cnn(C)c4)cc32)c1 [Compound 2] | 0.00148 µM | 0.00603 µM | 0.00417 µM | 0.00891 µM | 0.0933 µM | 
4 | COc1cc(OC)c(F)c(N2CCN(C(C)C)Cc3c2ccc2ncc(-c4cnn(C)c4)cc32)c1F [Compound 12] | 0.00309 µM | 0.0195 µM | 0.0107 µM | 0.038 µM | 0.115 µM | 
5 | COc1cc(O)cc(N2CCN(C(C)C)Cc3c2ccc2ncc(-c4cnn(C)c4)nc32)c1F [Compound 11] | 0.00389 µM | 0.0447 µM | 0.00891 µM | 0.0603 µM | 0.123 µM | 
6 | COc1cc(OC)c(Cl)c(N2CCN(C(C)C)Cc3c2ccc2ncc(-c4cnn(C)c4)nc32)c1Cl [Compound 5] | 0.00724 µM | 0.0269 µM | 0.0141 µM | 0.0776 µM | 0.263 µM | 
7 | CC(C)N1CCN(c2cc(O)cc(O)c2F)c2ccc3ncc(-c4cnn(C)c4)nc3c2C1 [Compound 9] | 0.977 µM | > 3.02 µM | > 3.02 µM | > 3.02 µM | > 3.02 µM | 
8 | COc1cc(OC)c(F)c(N2CCN(C(C)C)Cc3c2ccc2ncc(-c4cn[nH]c4)nc32)c1 [Compound 3] | 0.00155 µM | 0.0117 µM | 0.0055 µM | 0.0158 µM | 0.0708 µM | 
9 | COc1cc(OC)c(Cl)c(N2CCN(C(C)C)Cc3c2ccc2ncc(-c4cnn(C)c4)nc32)c1 [Compound 4] | 0.00209 µM | 0.0191 µM | 0.00741 µM | 0.0275 µM | 0.0589 µM | 
